Data: BindingDB's records for doi:10.7270/Q2F47MJ9 (Emory University, 2007)

Biological target: T1, Estrogen receptor (Homo sapiens, UniProt P03372)
T1 sequence (P03372 whole entry): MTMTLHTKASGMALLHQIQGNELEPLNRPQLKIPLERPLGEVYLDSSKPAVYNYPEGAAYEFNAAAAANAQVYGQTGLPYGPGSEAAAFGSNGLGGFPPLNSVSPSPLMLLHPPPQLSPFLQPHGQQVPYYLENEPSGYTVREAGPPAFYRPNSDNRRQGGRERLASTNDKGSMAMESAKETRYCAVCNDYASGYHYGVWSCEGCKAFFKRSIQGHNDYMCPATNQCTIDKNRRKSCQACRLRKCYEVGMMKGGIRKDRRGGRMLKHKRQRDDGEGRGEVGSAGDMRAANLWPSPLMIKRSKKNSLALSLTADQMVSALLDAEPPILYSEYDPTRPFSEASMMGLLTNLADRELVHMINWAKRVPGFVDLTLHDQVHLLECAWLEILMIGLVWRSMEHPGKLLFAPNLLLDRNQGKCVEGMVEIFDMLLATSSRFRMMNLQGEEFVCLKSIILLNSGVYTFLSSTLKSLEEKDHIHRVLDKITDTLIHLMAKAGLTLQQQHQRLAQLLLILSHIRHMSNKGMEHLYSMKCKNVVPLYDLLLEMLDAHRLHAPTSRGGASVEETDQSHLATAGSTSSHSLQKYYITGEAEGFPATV
Assay: potentiators of ERα–SRC-1 coactivator binding, dose response, biochemical, TR-FRET, ERα LBD (AID 737)

`O=C1c2ccccc2C(=O)C1c1ccnc2ccccc12` [2-(1H-quinolin-4-ylidene)indane-1,3-quinone] was tested, and the EC50 was 6.74 µM.
Work on `Cc1ccc(-c2n[nH]c(=S)n2NC=CCc2ccccc2[N+](=O)[O-])cc1` yielded an EC50 of 6.52 µM.
`CCc1[nH]nc2c1C(c1cccc(OC(=O)N3CCOCC3)c1)C(C#N)C(=N)O2` (stereo unspecified) [3-(6-amino-5-cyano-3-ethyl-1,4-dihydropyrano[2,3-c]pyrazol-4-yl)phenyl morpholine-4-carboxylate] was tested, and the EC50 was 6.39 µM.
`CCOc1ccc(Cc2sc(Nc3ccccn3)nc2O)cc1` [5-(4-Ethoxy-benzyl)-2-[(Z)-pyridin-2-ylimino]-thiazolidin-4-one] showed an EC50 of 25.1 µM.
In the case of `CCOc1ccccc1C1c2c(-c3ccccc3)noc2N=C(N)C1C#N` (stereo unspecified) [6-amino-4-(2-ethoxyphenyl)-3-phenyl-2,4-dihydroisoxazolo[5,4-b]pyridine-5-carbonitrile], the EC50 is reported as 17.5 µM.
Work on `CCn1c(=NC(=O)c2ccc(-n3c(O)ccc3O)cc2)sc2c(OC)ccc(OC)c21` [4-[2,5-bis(oxidanylidene)pyrrolidin-1-yl]-N-(3-ethyl-4,7-dimethoxy-1,3-benzothiazol-2-ylidene)benzamide] yielded an EC50 of 7.94 µM.
